Test results taken from the NIST ThermoML archive (doi:10.1016/j.jct.2006.08.009).
± gives the expanded uncertainty stated by the source.

Assay: mn = molality of the nth substance listed, in mol/kg
Settings: 350 kPa, Liquid; for apparent molar heat capacity: Extra sensitive DSC

OC[C@@H](O)[C@@H](O)CO [meso-1,2,3,4-butanetetrol] + O
Settings | apparent molar heat capacity [J/K/mol] | mass density [kg/m3]
318.15 K, m1 = 0.4998 | – | 1006.84 ± 0.18
318.15 K, m1 = 1 | – | 1021.96 ± 0.21
318.15 K, m1 = 2.002 | – | 1048.89 ± 0.27
318.15 K, m1 = 3.003 | – | 1071.67 ± 0.32
323.15 K, m1 = 0.0201 | 318 ± 77 | –
323.15 K, m1 = 0.05 | 338 ± 32 | –
323.15 K, m1 = 0.0999 | 334.4 ± 16 | –
323.15 K, m1 = 0.2501 | 332.7 ± 7 | –
323.15 K, m1 = 0.4998 | 331.6 ± 4.2 | –
323.15 K, m1 = 1 | 330.1 ± 3 | –
323.15 K, m1 = 2.002 | 324.5 ± 2.4 | –
323.15 K, m1 = 3.003 | 325.24 ± 2.2 | –
328.15 K, m1 = 0.0201 | 322 ± 75 | 986.49 ± 0.2
328.15 K, m1 = 0.05 | 341 ± 30 | 987.47 ± 0.19
328.15 K, m1 = 0.0999 | 337.8 ± 16 | 988.94 ± 0.19
328.15 K, m1 = 0.2501 | 336 ± 6.8 | 994.21 ± 0.18
328.15 K, m1 = 0.4998 | 335 ± 4.2 | 1002.15 ± 0.17
328.15 K, m1 = 1 | 333.5 ± 3 | 1017.15 ± 0.2
328.15 K, m1 = 2.002 | 328 ± 2.4 | 1043.78 ± 0.26
328.15 K, m1 = 3.003 | 328.66 ± 2.2 | 1066.4 ± 0.31
333.15 K, m1 = 0.0201 | 325 ± 75 | –
333.15 K, m1 = 0.05 | 344 ± 30 | –
333.15 K, m1 = 0.0999 | 341 ± 16 | –
333.15 K, m1 = 0.2501 | 339.2 ± 6.8 | –
333.15 K, m1 = 0.4998 | 338.1 ± 4 | –
333.15 K, m1 = 1 | 336.7 ± 3 | –
333.15 K, m1 = 2.002 | 331.2 ± 2.4 | –
333.15 K, m1 = 3.003 | 331.8 ± 2.1 | –
338.15 K, m1 = 0.0201 | 328 ± 73 | 981.39 ± 0.21
338.15 K, m1 = 0.05 | 347 ± 30 | 982.33 ± 0.2
338.15 K, m1 = 0.0999 | 343.9 ± 15 | 983.83 ± 0.2
338.15 K, m1 = 0.2501 | 342 ± 6.6 | 988.99 ± 0.19
338.15 K, m1 = 0.4998 | 340.9 ± 4 | 996.87 ± 0.17
338.15 K, m1 = 1 | 339.5 ± 2.8 | 1011.73 ± 0.19
338.15 K, m1 = 2.002 | 334.2 ± 2.3 | 1038.15 ± 0.25
338.15 K, m1 = 3.003 | 334.7 ± 2.1 | 1060.56 ± 0.29
343.15 K, m1 = 0.0201 | 330 ± 72 | –
343.15 K, m1 = 0.05 | 350 ± 30 | –
343.15 K, m1 = 0.0999 | 346.4 ± 15 | –
343.15 K, m1 = 0.2501 | 344.5 ± 6.6 | –
343.15 K, m1 = 0.4998 | 343.5 ± 4 | –
343.15 K, m1 = 1 | 342.1 ± 2.8 | –
343.15 K, m1 = 2.002 | 336.9 ± 2.3 | –
343.15 K, m1 = 3.003 | 337.33 ± 2.1 | –
348.15 K, m1 = 0.0201 | 332 ± 72 | 975.69 ± 0.22
348.15 K, m1 = 0.05 | 352 ± 28 | 976.65 ± 0.22
348.15 K, m1 = 0.0999 | 348.7 ± 15 | 978.12 ± 0.21
348.15 K, m1 = 0.2501 | 346.8 ± 6.5 | 983.23 ± 0.2
348.15 K, m1 = 0.4998 | 345.8 ± 4 | 991.14 ± 0.19
348.15 K, m1 = 1 | 344.4 ± 2.8 | 1005.88 ± 0.18
348.15 K, m1 = 2.002 | 339.4 ± 2.3 | 1032.07 ± 0.24
348.15 K, m1 = 3.003 | 339.73 ± 2.1 | 1054.35 ± 0.28
353.15 K, m1 = 0.0201 | 334 ± 70 | –
353.15 K, m1 = 0.05 | 354 ± 28 | –
353.15 K, m1 = 0.0999 | 350.7 ± 15 | –
353.15 K, m1 = 0.2501 | 348.9 ± 6.5 | –
353.15 K, m1 = 0.4998 | 347.8 ± 3.9 | –
353.15 K, m1 = 1 | 346.5 ± 2.8 | –
353.15 K, m1 = 2.002 | 341.77 ± 2.3 | –
353.15 K, m1 = 3.003 | 341.88 ± 2.1 | –
358.15 K, m1 = 0.0201 | 336 ± 70 | 969.51 ± 0.23
358.15 K, m1 = 0.05 | 356 ± 28 | 970.13 ± 0.23
358.15 K, m1 = 0.0999 | 352.4 ± 15 | 971.92 ± 0.23
358.15 K, m1 = 0.2501 | 350.5 ± 6.3 | 976.99 ± 0.22
358.15 K, m1 = 0.4998 | 349.5 ± 3.9 | 984.82 ± 0.2
358.15 K, m1 = 1 | 348.2 ± 2.8 | 999.52 ± 0.17
358.15 K, m1 = 2.002 | 343.88 ± 2.3 | 1025.52 ± 0.22
358.15 K, m1 = 3.003 | 343.6 ± 2 | 1047.59 ± 0.27
363.15 K, m1 = 0.0201 | 337 ± 68 | –
363.15 K, m1 = 0.05 | 357 ± 28 | –
363.15 K, m1 = 0.0999 | 353 ± 14 | –
363.15 K, m1 = 0.2501 | 351.1 ± 6.3 | –
363.15 K, m1 = 0.4998 | 350 ± 3.9 | –
363.15 K, m1 = 1 | 348.7 ± 2.8 | –
363.15 K, m1 = 2.002 | 345.8 ± 2.3 | –
363.15 K, m1 = 3.003 | 344.06 ± 2.1 | –
368.15 K, m1 = 0.0201 | – | 962.63 ± 0.25
368.15 K, m1 = 0.05 | – | 963.59 ± 0.24
368.15 K, m1 = 0.0999 | – | 965.08 ± 0.24
368.15 K, m1 = 0.2501 | – | 970.07 ± 0.23
368.15 K, m1 = 0.4998 | – | 978.02 ± 0.22
368.15 K, m1 = 1 | – | 992.7 ± 0.19
368.15 K, m1 = 2.002 | – | 1018.73 ± 0.21
368.15 K, m1 = 3.003 | – | 1041.19 ± 0.26
